Data on 20 compounds can be found in PubChem BioAssay (NCI).

Test systems include DMS 273 small cell lung; BT-549 breast; TK-10 renal; SNB-19 CNS; HOP-18 NSCLC; MCF7 breast; SNB-78 CNS; DU-145 prostate; DLD-1 colon; XF 498 CNS.
Assay in all cases: DTP human tumour cell line panel, 48 h

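48-hour exposure; five concentrations; linearly interpolated endpoints. TGI: total growth inhibition.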

As a reminder, the TGI is the concentration at which net growth stops. The low end stands for more potent growth arrest, the high end for less potent growth arrest. Regarding `O=P1(NCCCl)OCCC(OO)N1CCCl` (stereo not drawn), the TGI in the test on DMS 273 small cell lung was over 100 µM; in the test on BT-549 breast, over 100 µM; in the test with TK-10 renal it was 39.8 µM; in the test on SNB-19 CNS it was over 100 µM; in the test with HOP-18 NSCLC it was over 100 µM; in the test with MCF7 breast it was over 100 µM. The concentration for total growth inhibition (TGI) in the test on SNB-78 CNS was 86.7 µM; in the test on DU-145 prostate, over 100 µM; with DLD-1 colon, 50.5 µM.
In the case of `COC(=O)C1=CCS(=O)(=O)C1`, the TGI with TK-10 renal, in the test on SNB-19 CNS, in the test on HOP-18 NSCLC, in the test on SNB-78 CNS, in the test with XF 498 CNS and in the test on DLD-1 colon was over 100 µM each time.
Consider `NC1=C(O)/C(=N/NS(=O)(=O)c2ccccc2)C(c2cccc(Cl)c2)O1` (stereo not drawn), for which the TGI with DMS 273 small cell lung is over 100 µM; with BT-549 breast it was over 100 µM; with TK-10 renal, over 95.8 µM; in the test on SNB-19 CNS, over 100 µM; in the test with HOP-18 NSCLC, over 100 µM; in the test with MCF7 breast, 61.7 µM. Further, the TGI in the test on SNB-78 CNS is over 100 µM; with DU-145 prostate it was over 100 µM; with DLD-1 colon it was 31.7 µM.
On to `O=C1OC(/C=C/c2ccccc2)C(=O)C1=O` (stereo not drawn), for which the concentration for total growth inhibition (TGI) in the test on DMS 273 small cell lung, in the test with TK-10 renal, in the test with SNB-19 CNS, with HOP-18 NSCLC, in the test with XF 498 CNS and with DLD-1 colon was over 100 µM each time.
`O=c1c2ccc(Br)cc2nc(-c2ccccc2)n1NC1OC(CO)C(O)C(O)C1O` (stereo not drawn): the TGI in the test on DMS 273 small cell lung, in the test on TK-10 renal, with SNB-19 CNS, in the test with HOP-18 NSCLC, in the test with SNB-78 CNS and in the test on XF 498 CNS was over 100 µM each time.
As to `O=C(NCCOCCO)c1ccc(O)cc1`, the TGI in the test with DMS 273 small cell lung, in the test with TK-10 renal, in the test on HOP-18 NSCLC, in the test with XF 498 CNS and in the test on DLD-1 colon was over 100 µM in each case.
In the case of `C=C1[C@@H]2CCC(C)(C)[C@H]1CCC(=O)[C@@H]2C(=O)OC`, the TGI in the test on DMS 273 small cell lung, with TK-10 renal, with SNB-19 CNS and in the test on XF 498 CNS was over 100 µM throughout.
Turning to `Cc1ccc(Sc2cc([N+](=O)[O-])cc(Sc3ccc(C)cc3)c2Sc2ccc(C)cc2)cc1`, the TGI with DMS 273 small cell lung, with TK-10 renal, in the test with SNB-19 CNS, with SNB-78 CNS, in the test with XF 498 CNS and in the test on DLD-1 colon was over 100 µM throughout.
On to `CC(=O)NC1C(OCc2ccccc2)OC(COC(=O)CCCCCCCCCCNC(=O)CCNc2ccc([N+](=O)[O-])c3[nH]c4ccc(O)cc4c(=O)c23)C(O)C1OC(C)C(=O)N[C@H](C(=O)N[C@H](CCC(=O)O)C(N)=O)C(C)C` (stereo partly drawn), for which the concentration for total growth inhibition (TGI) with DMS 273 small cell lung, in the test with TK-10 renal, in the test on SNB-19 CNS, in the test on HOP-18 NSCLC, in the test on SNB-78 CNS and in the test on DLD-1 colon was over 100 µM throughout.
`CC12CCC(C)(c3cc(O)c(O)cc31)c1cc(O)c(O)cc12`: the TGI was 37.5 µM with DMS 273 small cell lung; 40.3 µM in the test with TK-10 renal; 30.2 µM in the test on SNB-19 CNS; 39.2 µM with SNB-78 CNS; 34 µM in the test with XF 498 CNS; 45.7 µM in the test with DLD-1 colon.
Take `CCCCCCCCCCCCCCCc1nc(SCC(=O)O)n[nH]1`: the TGI in the test on TK-10 renal is over 100 µM; with SNB-19 CNS it was over 100 µM; in the test on HOP-18 NSCLC, over 100 µM; with SNB-78 CNS it was over 100 µM; in the test on XF 498 CNS, over 100 µM; in the test on DLD-1 colon, 56.1 µM.
With `CCN(CC)[C@@H]1c2cc3c(cc2C(c2cc(OC)c(O)c(OC)c2)C2C(=O)CO[C@@H]21)OCO3` (stereo partly drawn), the TGI with DMS 273 small cell lung, with TK-10 renal, with XF 498 CNS and in the test with DLD-1 colon was over 100 µM in each case.
Take `O=c1cc(/C=C/c2ccccc2)c2ccc(O/C(=C\c3ccccc3)c3nc4ccccc4c(=O)o3)cc2o1`: the TGI is over 100 µM with DMS 273 small cell lung; over 100 µM in the test on TK-10 renal; over 100 µM in the test on SNB-19 CNS; 70.8 µM in the test with SNB-78 CNS; 70.5 µM with XF 498 CNS; over 100 µM in the test on DLD-1 colon.
`OCC1C2C=CC(O2)[C@H]1CO` (stereo partly drawn): the TGI with DMS 273 small cell lung, in the test on TK-10 renal, in the test with SNB-19 CNS, in the test with HOP-18 NSCLC, in the test with SNB-78 CNS and with DLD-1 colon was over 100 µM in each case.
On to `O=C1CCC(=O)C12CCc1ccccc12`, for which the TGI in the test with DMS 273 small cell lung, with TK-10 renal, in the test with HOP-18 NSCLC, in the test with XF 498 CNS and in the test on DLD-1 colon was over 100 µM throughout.
As to `COc1ccc(/C=C\c2cc(OC)c(OC(C)=O)c(OC)c2)cc1`, the TGI in the test on DMS 273 small cell lung was over 100 µM; in the test on SNB-19 CNS it was over 100 µM; in the test with SNB-78 CNS, 73.9 µM; with XF 498 CNS, over 100 µM; with DLD-1 colon it was over 100 µM.
Turning to `OC1/C(=C/c2ccccc2)CNC/C1=C\c1ccccc1` (stereo not drawn), the TGI with DMS 273 small cell lung, in the test with TK-10 renal, with SNB-19 CNS, in the test with HOP-18 NSCLC, with SNB-78 CNS and in the test with DLD-1 colon was over 100 µM each time.
Consider `Fc1cccc(C2SCc3nc4ccccc4n32)c1` (stereo not drawn), for which the TGI in the test with DMS 273 small cell lung was over 100 µM; with TK-10 renal it was over 10 µM; in the test with SNB-19 CNS, over 100 µM; in the test with SNB-78 CNS it was over 100 µM; in the test on DLD-1 colon it was over 100 µM.
Regarding `C[C@]12CC[C@H](O)CC1CCC[C@@H]2O` (stereo partly drawn), the TGI in the test with DMS 273 small cell lung, in the test on TK-10 renal, with SNB-19 CNS, in the test with SNB-78 CNS, with XF 498 CNS and in the test on DLD-1 colon was over 100 µM throughout.
For the compound `CCn1cc(C(=O)O)c(=O)c2cc(F)c(N3CCNCC3)nc21`, the TGI in the test on DMS 273 small cell lung, with TK-10 renal, with SNB-19 CNS, in the test on HOP-18 NSCLC, in the test on SNB-78 CNS and in the test on DLD-1 colon was over 100 µM throughout.
